Patent US20230257385A1, “SALT AND SOLID FORMS OF TABERNANTHALOG” (priority 2021, published 2023)

How the values were obtained:
Format in all cases: physicochemical
[1] = Competitive suspension equilibration monofumarate Form A and Form B (Experiment Reference 16); conditions: 16-A at 20 °C, 16-B at 40 °C
Protocol: Competitive suspension equilibration (Form A and Form B) (Experiment Reference 16) a. Experimental Procedure Equimolar quantities of Form A (Pattern #6a, 25.4 mg, 1 wt, 8-A4; (Experiment Reference 8-Sample Reference A4)) and Form B (Pattern #2a, 25.0 mg, 1 wt, Sample B-A2) were suspended in tBME (250 μl, 5.0 vol). The first experiment was agitated at 20° C., (16-A) (Experiment Reference 16-Sample Reference A), while the other was agitated at 40° C. (16-B) (Experiment Reference 16-Sample Reference B). The suspension was monitored by XRPD analysis.
Competitive suspension equilibration of Form A (8-A4) (Experiment Reference 8-Sample Reference A4) versus Form B (Sample B-A2) was performed at 20° C. […] Summary of competitive suspension equilibration between Form A and Form B (16-A (Experiment Reference 16-Sample Reference A) and 16-B (Experiment Reference 16-Sample Reference B)) is provided in Table 153A.

[2] = Evaporation screen of the monofumarate salt (Experiment Reference 14); conditions: input Sample Reference 1, Solvent A DMSO, Solvent B: 14-A EtOH; for XRPD crystallinity (oven dried): 14-B nBuOH, 14-C water; for XRPD crystallinity (wet pellet): 14-B nBuOH (disordered), 14-C water (high background)
Protocol: Crystallization of the API was examined by changing the composition of the crystallization solvent by evaporation of a volatile diluent. This technique is useful for generating kinetic forms and solvates. Separate portions of the tabernanthalog monofumarate salt (Pattern #1, Sample Reference 1, ca 50 mg, 1.0 wt.) were charged to separate vessels. DMSO (100 μl, 2.0 vol, refer to Table 132) was charged to the relevant vessels and subsequent charges of the appropriate co-solvent (900 μl, 18.0 vol) were made to accomplish dissolution. The vials were covered with an aluminum foil cap and pierced with a single hole, then left to stand at 20° C. After 6 days, gentle nitrogen flux was applied to dryness. The products were analyzed by XRPD and companion analyses, for evidence of alternative crystalline forms.

[3] = Binary solvent evaporation crystallisation of sorbate salt (Example 10, Experiment 6); conditions: sorbate salt Form A evaporated from MeOH (10 vol) plus solvent B (5 vol), one solvent B per sample
Text: Each vial was capped with aluminium foil, pierced, and allowed to stand undisturbed until the evaporation is completed.

[4] = Vapour diffusion of the monofumarate salt (Experiment Reference 13); conditions: input Sample Reference 1, Solvent A DMSO, Solvent B: 13-B TBME, 13-C water, patterns v. disordered
Protocol: The tabernanthalog monofumarate salt (Sample Reference 1, Pattern #1, 3×75 mg, 1 wt) was weighed out in to 3 separate snap-top vials and DMSO (375 ul, 5 vol) was charged to each vial. Gentle warning was applied to ensure full dissolution and the vials (open) were placed inside amber jars that contained 6 ml of DCM (13-A) (Experiment Reference 13-Sample Reference A), tBME (13-B) (Experiment Reference 13-Sample Reference B) and water (13-C) (Experiment Reference 13-Sample Reference C).
The 3 jars that contained the vials were left standing at 20° C., to allow slow movement of the diffusant solvent from the outer jar into the solvent inside the smaller, open wide-necked vessel and promote crystallization by altering the solvent composition.

[5] = Suspension equilibration (competitive; ageing cycle; drying of wet pellets), relative stability of forms
Protocol: FIG. 94 depicts the XRPD overlay of, form top to bottom, a mixture of Tabernanthalog·0.5 Fumarate and Tabernanthalog·Fumarate equilibrated in acetonitrile at 20° C., a mixture of Tabernanthalog·0.5 Fumarate and Tabernanthalog·Fumarate equilibrated in acetonitrile at 40° C. and Tabernanthalog fumarate Pattern 19.
FIG. 283 depicts the timepoints of the suspension equilibration in tBME at 20° C. XRPD diffractogram overlay of, from top to bottom, Sample B-A2 (Form B, Pattern #2a), 8-A4 (Form A, Pattern #6a), 16-A1 (t=24 h, 16-A2 (t=48 h), 16-A3 (t=108 h), 16-A4 (t=192 h) 16-A8 (t=4 weeks).
FIG. 284 depicts the timepoints of the suspension equilibration in tBME at 40° C. XRPD diffractogram overlay of, from top to bottom, Sample B-A2 (Form B, Pattern #2a), 8-A4 (Form A, Pattern #6a), 16-B1 (t=24 h, 16-B2 (t=48 h), 16-B3 (t=108 h), 16-B4 (t=192 h) 16-B8 (t=4 weeks).

[6] = Stability of Tabernanthalog·Sorbate·HemiHFIPA at 75% RH, 20° C. and 40° C.; conditions: 5 days; for Outcome: input Experiment 3-Sample A2; for HFIPA content after storage / powder pattern after storage: 75% RH, 20° C. and 40° C.; for HFIPA content after storage: 19F NMR; for powder pattern after storage: XRPD
Protocol: Stability of the salt (Table 302) at elevated relative humidity was examined at 20 and 40° C., to determine if the HFIPA solvent can be replaced by water to generate the isomorphic hydrate.
Experimental reference: Experiment 3-Sample B1, Experiment 3-Sample C1 Tabernanthalog·Sorbate·HemiHFIPA (Experiment 3-Sample A2, 28.2 mg, 1 wt) was charged into a wide necked solid sample vial, the uncapped vial was placed inside a larger amber jar containing an aqueous NaCl slurry. The amber jar was sealed and left to stand for 5 days. The specimen analysed by XRPD, ^19F NMR, TGA and DSC after 5 days.

[7] = Re-proportionation examination hemifumarate / monofumarate (Example 5, Experiment References 5 and 10)
Protocol: (5-B4; Experiment Reference 5-Sample Reference B4) and 40° C. (5-B5; Experiment Reference 5-Sample Reference B5). The output was analyzed by XRPD (FIG. 94).
Purified water (250 ml, 5 vol) was subsequently added, and the suspension was stirred at 50° C. for ca. 24 h.
Purified water (250 ml, 5 vol) was subsequently added, and the suspension was stirred at 20° C. for ca. 24 h.

[8] = Stability panel of salts, open vial / double-bagged vial, t=5 d and 10 d; conditions: input Form A
Text: FIG. 797 depicts the overlay of, from top to bottom, XRPD of Experiment 1-Sample A2 (Form A), Experiment 10-Sample A1 (5 days, open vial Pattern #2), Experiment 10-Sample A2 (10 days, open vial, Pattern #2), Experiment 10-Sample B1 (5 days, double-bagged vial, Form A) and Experiment 10-Sample B2 (10 days, double-bagged vial, Pattern #2).

[9] = listed as Tabernanthalog·Sorbate·hemiHFIPA

In the case of COc1ccc2c3c([nH]c2c1)CCN(C)CC3.O=C(O)/C=C/C(=O)O [Pattern 16-B], the “XRPD (24 h, -A1)” value ([1]; competitive suspension equilibration of Form A (8-A4) and Form B (Sample B-A2) in TBME (5.0 vol), t = 24 h) is reported as “Form A > Form B”.
For COc1ccc2c3c([nH]c2c1)CCN(C)CC3.O=C(O)/C=C/C(=O)O [Sample 14-B], the “XRPD crystallinity (oven dried)” value [2] was “Pattern 23”.
With C/C=C/C=C/C(=O)O.COc1ccc2c3c([nH]c2c1)CCN(C)CC3 [Experiment 6-Sample E] the “XRPD (dried under nitrogen)” value [3] was “Form A”.
For COc1ccc2c3c([nH]c2c1)CCN(C)CC3.O=C(O)/C=C/C(=O)O [Sample 13-C], the “XRPD crystallinity (oven dried)” value [4] was “Pattern #23” and the “XRPD crystallinity (wet pellet)” value [4] was “Pattern #23”.
In the case of COc1ccc2c3c([nH]c2c1)CCN(C)CC3.O=C(O)/C=C/C(=O)O [Pattern 14-C], the “XRPD crystallinity (wet pellet)” value [2] is reported as “(Pattern #6a)”.
In the case of COc1ccc2c3c([nH]c2c1)CCN(C)CC3 [Form B], the “form change under competitive suspension equilibration conditions” value ([5]; in the presence of Form A) is reported as “slowly evolves into Form A”.
For COc1ccc2c3c([nH]c2c1)CCN(C)CC3.O=C(O)/C=C/C(=O)O [Pattern 16-A], the “XRPD (4 weeks, -A8)” value ([1]; competitive suspension equilibration of Form A and Form B in TBME (5.0 vol), t = 4 weeks) was “Form A > Form B”, the “XRPD (48 h, -A2)” value ([1]; competitive suspension equilibration of Form A and Form B in TBME (5.0 vol), t = 48 h) was “Form A > Form B” and the “XRPD (108 h, -A3)” value ([1]; competitive suspension equilibration of Form A and Form B in TBME (5.0 vol), t = 108 h) was “Form A > Form B”. For the same molecule, the “XRPD (192 h, -A4)” value ([1]; competitive suspension equilibration of Form A and Form B in TBME (5.0 vol), t = 192 h) was “Form A >> Form B”.
With CC=CC=CC(=O)O.COc1ccc2c3c([nH]c2c1)CCN(C)CC3 [Experiment 6-Sample A] the “XRPD (dried under nitrogen)” value [3] was “Pattern #1”.
In the case of CC=CC=CC(=O)O.CC=CC=CC(=O)O.COc1ccc2c3c([nH]c2c1)CCN(C)CC3.COc1ccc2c3c([nH]c2c1)CCN(C)CC3.OC(C(F)(F)F)C(F)(F)F [Tabernanthalog•Sorbate•hemiHFIPA], the Outcome ([6]; 75% RH 20° C.) is reported as “HemiHFIPA” and the Outcome ([6]; 75% RH 40° C.) is reported as “HemiHFIPA”.
In the case of C/C=C/C=C/C(=O)O.COc1ccc2c3c([nH]c2c1)CCN(C)CC3 [Experiment 6-Sample D], the “XRPD (dried under nitrogen)” value [3] is reported as “Form A”.
For CC=CC=CC(=O)O.COc1ccc2c3c([nH]c2c1)CCN(C)CC3 [Experiment 6-Sample C], the “XRPD (dried under nitrogen)” value [3] was “Form A”.
For COc1ccc2c3c([nH]c2c1)CCN(C)CC3 [tabernanthalog hemifumarate], the “change of salt stoichiometry during an ageing cycle” value ([5]; ageing cycle) was “re-proportionated into the fumarate salt”, the “re-proportionation of the hemi-salt into the monofumarate salt” value ([7]; Expt. #1: equilibrated in acetonitrile at 20° C., 20 h time point) was “did not re-proportionate” and the “outcome of competitive equilibration of hemifumarate and monofumarate” value ([7]; Expt. #2: acetonitrile, 48 h at 20° C. and 18 h at 40° C., XRPD) was “re-proportionation into the unary-fumarate appeared to be favored over the hemi-fumarate”.
For COc1ccc2c3c([nH]c2c1)CCN(C)CC3.O=C(O)/C=C/C(=O)O [Pattern 14-B], the “XRPD crystallinity (wet pellet)” value [2] was “(Pattern #23)”.
In the case of COc1ccc2c3c([nH]c2c1)CCN(C)CC3.O=C(O)/C=C/C(=O)O [Sample 14-A], the “XRPD crystallinity (oven dried)” value [2] is reported as “Pattern 23”.
For C/C=C/C=C/C(=O)O.C/C=C/C=C/C(=O)O.COc1ccc2c3c([nH]c2c1)CCN(C)CC3.COc1ccc2c3c([nH]c2c1)CCN(C)CC3.OC(C(F)(F)F)C(F)(F)F [Tabernanthalog·Sorbate·HemiHFIPA], the “HFIPA content after storage” value [6] was “small decrease in HFIPA content”, the “HFIPA content after storage” value [6, 9] was “partial loss of HFIPA” and the “powder pattern after storage” value [6] was “No change in powder pattern observed”. The “powder pattern after storage” value [6, 9] was “No change in the powder pattern was observed”.
For COc1ccc2c3c([nH]c2c1)CCN(C)CC3.O=C(O)/C=C/C(=O)O [Sample 13-B], the “XRPD crystallinity (oven dried)” value [4] was “Pattern #24” and the “XRPD crystallinity (wet pellet)” value [4] was “Pattern #24”.
With COc1ccc2c3c([nH]c2c1)CCN(C)CC3.O=C(O)/C=C/C(=O)O [Pattern 14-A] the “XRPD crystallinity (wet pellet)” value [2] was “(Pattern #23)”.
With COc1ccc2c3c([nH]c2c1)CCN(C)CC3.O=C(O)/C=C/C(=O)O [Sample 14-C] the “XRPD crystallinity (oven dried)” value [2] was “Pattern 6a”.
For C/C=C/C=C/C(=O)O.COc1ccc2c3c([nH]c2c1)CCN(C)CC3 [tabernanthalog sorbate salt Form A], the “form by XRPD after stability storage” value ([8]; 5 days, double-bagged vial) was “Form A”, the “form by XRPD after stability storage” value ([8]; 5 days, open vial) was “Pattern #2” and the “form by XRPD after stability storage” value ([8]; 10 days, double-bagged vial) was “Pattern #2”.
